Read-outs that look alike come from different tables or passages of the source.
Columns and labels:
HCT116 Parental cells = assay: HCT116 Parental cell viability, combination with chemotherapy; format: cell-based; details: Homo sapiens, HCT-116, HCT116 cells, read-out: IC50 5-FU
CRC patient samples = assay: Tumor growth inhibition index of CRC patient samples; format: in vivo
Excerpt: Analytical measurements include tumor volume by caliper and survival. […] Using this information, 8 patient samples with diverse genetic background mutations, stage of cancer, site of cancer (primary vs metastatic) were initially selected (Table 2).

PARP1 [1] = molecular target: T1, PARP1 (Homo sapiens, UniProt P09874); assay: PARP1 enzymatic (colorimetric) assay
T1 sequence (P09874 whole entry, the tested form may be a part): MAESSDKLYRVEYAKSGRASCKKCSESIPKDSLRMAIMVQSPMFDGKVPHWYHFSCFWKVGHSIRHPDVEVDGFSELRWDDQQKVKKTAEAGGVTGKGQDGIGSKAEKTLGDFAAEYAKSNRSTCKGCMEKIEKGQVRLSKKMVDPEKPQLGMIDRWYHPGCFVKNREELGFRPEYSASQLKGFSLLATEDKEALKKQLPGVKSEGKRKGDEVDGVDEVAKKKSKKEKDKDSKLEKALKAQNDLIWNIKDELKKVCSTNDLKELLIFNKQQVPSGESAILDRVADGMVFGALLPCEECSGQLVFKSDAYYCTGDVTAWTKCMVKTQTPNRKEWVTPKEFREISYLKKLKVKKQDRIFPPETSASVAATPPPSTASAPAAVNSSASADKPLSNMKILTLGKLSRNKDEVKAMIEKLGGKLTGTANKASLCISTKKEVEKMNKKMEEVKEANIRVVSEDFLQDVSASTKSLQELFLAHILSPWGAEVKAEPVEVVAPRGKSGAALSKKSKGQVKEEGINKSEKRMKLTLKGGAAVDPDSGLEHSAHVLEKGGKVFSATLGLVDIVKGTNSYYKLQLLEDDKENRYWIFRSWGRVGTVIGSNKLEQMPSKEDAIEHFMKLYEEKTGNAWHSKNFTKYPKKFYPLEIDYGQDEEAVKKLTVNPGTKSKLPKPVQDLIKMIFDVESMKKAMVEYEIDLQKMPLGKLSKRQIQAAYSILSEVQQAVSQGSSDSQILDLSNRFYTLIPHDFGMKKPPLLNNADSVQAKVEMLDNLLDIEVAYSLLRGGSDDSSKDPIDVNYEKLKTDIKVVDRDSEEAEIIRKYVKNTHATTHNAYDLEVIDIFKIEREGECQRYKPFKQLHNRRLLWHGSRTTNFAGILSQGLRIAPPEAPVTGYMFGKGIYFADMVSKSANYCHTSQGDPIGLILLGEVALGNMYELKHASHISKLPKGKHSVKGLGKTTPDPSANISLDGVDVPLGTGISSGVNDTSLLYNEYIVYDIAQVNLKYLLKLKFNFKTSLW
Description: First, a 96 well plate was coated with histones. Next, the biotinylated NAD^+ substrate was incubated with an activated DNA template, the inhibitor to test and the PARP1/2 enzyme for 1 h at RT. After that, the sample plate was treated with streptavidin-RP for 30 min at RT, followed by addition of the horseradish peroxidase (HRP) substrate until the colorimetric signal was developed. The EnVision plate reader (PerkinElmer) was used to measure the absorbance at 450 nm and the results were plotted and analyzed using GraphPad Prism.

SUM149PT cells = assay: Phosphatidylserine externalization, membrane integrity and DNA fragmentation; format: cell-based
Description: Phosphatidylserine externalization and membrane integrity—phosphatidylserine externalization and membrane integrity kinetics were analyzed using the RealTime-Glo™ Annexin V Apoptosis and Necrosis Assay (Promega, JA1012) according to the manufacturer's instructions. 8,000 cells were seeded per well in 96 well solid bottom white plates (Corning) in 100 μL and allowed to attach overnight. Then, 75 μL of media were removed, followed by the addition of 25 μL of the test compounds at 4× desired final concentration and 50 μL of the 2× detection reagent. Luminescence and fluorescence were measured overtime using an EnVision plate reader (PerkinElmer). No-cell and medium-only controls were used for background correction.
PARthanatos might be accompanied by other events also occurring during apoptosis or necrosis like mitochondrial depolarization, phosphatidylserine (PS) externalization, loss of membrane integrity and large-scale DNA fragmentation. To better characterize this mechanism, PS externalization and membrane integrity were studied using a real-time multiplex assay that monitors Annexin V binding to PS and simultaneous loss of cell membrane integrity with a membrane impermeable DNA binding dye. […] In contrast, CHD1Li caused a rapid and simultaneous increase of both when combined with SOC drugs, shifting the kinetics to a more non-apoptotic phenotype.

PARP1 [2] = molecular target: T1, PARP1; assay: PARP1 trapping (in situ subcellular fractionation, immunofluorescence)
Description: (§1) PARP1/2 and CHD1L trapping—PARP1, PARP2 and CHD1L trapping were assessed. SUM149PT cells were plated at a density of 20,000 cells per well into clear bottom black 96-well plates (PerkinElmer). […] After 4 h incubation, cell media was aspirated and cells were treated for 10 min at 4° C. with cold cytoskeleton (CSK) buffer (10 mM PIPES pH=6.8, 300 mM sucrose, 200 mM NaCl, 3 mM MgCl2) supplemented with 0.6% Triton X-100. […] PARP1 (anti-PARP1 antibody, 1:2000, O/N, 4° C.), PARP2 (anti-PARP2, 1:1000, O/N, 4° C.) and CHD1L (anti-CHD1L, 1:1000, O/N, 4° C.) primary antibodies were then added in antibody dilution buffer (2% BSA in PBS) and incubated O/N at 4° C.
To study the accumulation of bound PARP1/2 on chromatin, in situ subcellular fractioning of SUM149PT cells co-treated with 0.01% methyl methanesulfonate (MMS) and the drug of interest was used, followed by immunofluorescence. […] The cells were exposed to anti-CHD1L and anti-PARP1 fluorescent antibodies, and the cells were subsequently imaged.

Colo679 cells = assay: DDR biomarkers (pATM, RAD51, 53BP1, γ-H2AX) in Colo679 cells; format: cell-based; details: 4 μM
Excerpt: Etoposide was used as a control to show upregulation of DDR pathway biomarkers.

[3] = system: SW620 M-phenotype mouse xenografts; assay: Irinotecan drug resistant SW620 M-phenotype mouse xenografts; format: in vivo
caspase-3 = assay: Caspase-3 cleavage activation; format: cell-based; details: for caspase-3 cleavage activation: single agent
Description: AIF in the cytoplasm and nucleus was examined. […] Finally, caspase-3 cleavage activation, an apoptosis marker, was measured (FIG. 16D).
CHD1Li-mediated PAR translocation to the cytoplasm activates PARthanatos as a cell death mechanism. Parthanatos is a form a programmed cell death different from apoptosis and known to be mediated by PARP1 overactivation. The unique events occurring during parthanatos are: PARP1 rapid activation, accumulation of PAR and nuclear translocation of apoptosis inducing factor (AIF). Without being bound by any particular theory, accumulation of PAR in the cytoplasm caused by CHD1Li can also mediate parthanatos. To better understand the link between PAR translocation to the cytoplasm and cell death, immunofluorescence to measure the activation of caspase-3 and the subcellular localization of AIF after treatment with SOC drugs and Compound 6 in SUM49PT cells was used. […] Without being bound by any particular theory, this might be caused by the mitochondrial outer membrane permeabilization, which triggers release of mitochondrial proteins like AIF or cytochrome c, activating caspase-3 by its cleavage and leading to apoptosis. […] Moreover, when combining CHD1L inhibition with SOC drugs, the cell death mechanism shifts from apoptosis to parthanatos, evidenced by a significant increase in AIF nuclear translocation and decrease in activation of caspase-3 (FIG. 25D-E).

MCF-7 cells = assay: Tumor organoid viability, MCF-7; format: cell-based; details: Homo sapiens, MCF7; MCF-7 (luminal breast cancer); read-out: IC50, tumor organoid viability, single agent
Excerpt: The tumor organoid viability assay is as described in Example 9.

[4] = system: colon cancer mouse xenograft; assay: Colon cancer mouse xenograft model; format: in vivo, mice
Description: The tumor volume was monitored over 30 days, and the tumor volume was measured after 30 days. The tumor was extracted from the mice, and the dimensions of the tumor were measured to provide a tumor volume in mm^3.
Key: PO=oral; IP=intraperitoneal; ANOVA significance: *: P<0.05; **: P<0.0003; ***: P<0.0001.

PARP2 = PARP2 (Homo sapiens, UniProt Q9UGN5); assay: PARP2 trapping (in situ subcellular fractionation, immunofluorescence); format: cell-based; set-up: endogenous in cells; host or cells: SUM149PT; details: SUM149PT cells, 0.01% MMS, 4 h
Sequence of PARP2 (Q9UGN5 whole entry): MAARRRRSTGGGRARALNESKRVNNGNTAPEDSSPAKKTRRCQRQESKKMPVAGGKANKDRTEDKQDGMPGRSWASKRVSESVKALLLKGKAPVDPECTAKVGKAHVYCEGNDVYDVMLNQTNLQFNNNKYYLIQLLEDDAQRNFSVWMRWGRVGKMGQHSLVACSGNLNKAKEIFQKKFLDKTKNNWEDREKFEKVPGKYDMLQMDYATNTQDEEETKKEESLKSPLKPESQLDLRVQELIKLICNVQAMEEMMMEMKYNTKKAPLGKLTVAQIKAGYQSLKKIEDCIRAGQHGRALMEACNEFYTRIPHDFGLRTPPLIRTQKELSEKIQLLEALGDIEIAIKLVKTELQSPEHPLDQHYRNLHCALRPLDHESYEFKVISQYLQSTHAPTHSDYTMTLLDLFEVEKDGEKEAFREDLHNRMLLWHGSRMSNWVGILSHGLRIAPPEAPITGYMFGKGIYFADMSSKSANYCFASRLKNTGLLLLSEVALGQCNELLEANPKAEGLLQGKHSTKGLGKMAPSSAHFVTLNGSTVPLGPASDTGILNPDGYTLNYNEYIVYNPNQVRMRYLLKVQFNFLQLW
Description: as §1
To study the accumulation of bound PARP1/2 on chromatin, in situ subcellular fractioning of SUM149PT cells co-treated with 0.01% methyl methanesulfonate (MMS) and the drug of interest was used, followed by immunofluorescence.

SW620 tumor organoids = details: SW620 tumor organoids

SMILES: O=c1[nH]cc(F)c(=O)[nH]1 [Compound 5-FU, 5-fluorouracil]
- IC50 (HCT116 Parental cells; Compound 11 0 μM): 95.7 µM
- IC50 (HCT116 Parental cells; Compound 11 2.5 μM): 192 µM
- IC50 (HCT116 Parental cells; Compound 11 3 μM): 63.4 µM
- IC50 (HCT116 Parental cells; Compound 11 3.5 μM): 43.2 µM
- IC50 (HCT116 Parental cells; Compound 12 0 μM): 103 µM
- IC50 (HCT116 Parental cells; Compound 12 5 μM): 34.6 µM
- IC50 (HCT116 Parental cells; Compound 12 6 μM): 11.5 µM
- 5FU Response (tumor growth inhibition index) (CRC patient samples; patient sample CRC001, Primary, KRAS): 185.8%
- 5FU Response (tumor growth inhibition index) (CRC patient samples; patient sample CRC026, Metastatic): 77.3%
- 5FU Response (tumor growth inhibition index) (CRC patient samples; patient sample CRC042, Primary, KRAS, TP53): 107.8%
- 5FU Response (tumor growth inhibition index) (CRC patient samples; patient sample CRC102, Metastatic, KRAS): 113.1%

SMILES: Cc1cc(Nc2ccc(NC(=O)Cc3cccs3)cc2)nc(N2CCCC2)n1 [Compound 6, N-(4-((6-methyl-2-(pyrrolidin-1-yl)pyrimidin-4-yl)amino)phenyl)-2-(thiophen-2-yl)acetamide]
- PARP1 enzyme activity (PARP1 [1]): does not have any effect on PARP1/2 activity
- DNA fragmentation (Hoechst 33342) (SUM149PT cells): large-scale fragmentation of DNA

SMILES: Cc1cc(Nc2ccc(NC(=O)Cc3cc(Br)cs3)cc2)nc(N2CCCC2)n1 [Compound 6.11, 2-(4-bromothiophen-2-yl)-N-(4-((6-methyl-2-(pyrrolidin-1-yl)pyrimidin-4-yl)amino)phenyl)acetamide]
- increase in PARP1 trapping (PARP1 [2]; SUM149PT cells, 0.01% MMS, 4 h): 10 fold
- PARP1/2 trapping compared to olaparib alone (PARP1 [2]; non-trapping doses of Compound 6.11 combined with olaparib): significant increase in PARP1/2 trapping
- amount of 53BP1 (Colo679 cells): decrease the amount of 53BP1
- amount of RAD51 (Colo679 cells): increase the amount of RAD51
- amount of pATM (Colo679 cells): minimal effect
- γ-H2AX concentrations (Colo679 cells): decreased
- inhibition of tumor growth vs irinotecan alone ([3]; Compound 6.11 5 mg/kg IP 1×/day + irinotecan 50 mg/kg 1×/week): significantly more effective at inhibiting tumor growth
- increase in mouse survival ([3]; Compound 6.11 5 mg/kg IP 1×/day + irinotecan 50 mg/kg 1×/week vs irinotecan alone): about a month
- increase in mouse survival compared to irinotecan alone ([3]; low doses of Compound 6.11 combined with irinotecan, drug resistant CRC nude mouse xenografts): 30 days
- caspase-3 activation (caspase-3; Compound 6.11 combined with SN-38): enhanced caspase-3 activation
- caspase-3 cleavage activation (caspase-3): did not induce caspase-3 activation
- IC50 (MCF-7 cells): ~1.8 µM
- decrease in tumor volume ([4]; Compound 6.11 5 mg/kg daily IP + irinotecan 50 mg/kg 1×/week IP, after 20 days): approximately 50%
- metastatic tumor burden (bioluminescent imaging, % change total flux) ([4]; Compound 6.11 100 mg/kg 5×/week oral + irinotecan 15 mg/kg 1×/week IP): ~0
- survival ([4]; combination of Compound 6.11 and irinotecan): improved survival rates
- increase in PARP2 trapping (PARP2): 2 fold
- synergy score (SW620 tumor organoids; Compound 6.11 2.75 μM combined with 5FU): ~ 30

SMILES: COc1cccc2c1C(=O)c1c(O)c3c(c(O)c1C2=O)C[C@@](O)(C(=O)CO)C[C@@H]3O[C@H]1C[C@H](N)[C@H](O)[C@H](C)O1 [doxorubicin]
- caspase-3 cleavage activation (caspase-3): activation of apoptosis by cleavage of caspase-3
- phosphatidylserine externalization / membrane integrity kinetics (SUM149PT cells; real-time Annexin V assay): apoptotic kinetic phenotype

SMILES: O=C(c1cc(Cc2n[nH]c(=O)c3ccccc23)ccc1F)N1CCN(C(=O)C2CC2)CC1 [olaparib]
- PARP2 trapping (PARP2): trapped in a dose-dependent manner both PARP1 and PARP2
- enhancement of olaparib potency (SW620 tumor organoids; combined with Compound 6.11): ~ 355 fold
